Laboratory results published in patent US10167300B2, “Metalloenzyme inhibitor compounds as fungicides” (priority 2014, dated 2019).
Where two headings read alike, the source gives them in different places.

Columns and labels:
[1] = tested on: Mycosphaerella graminicola; Anamorph: Septoria tritici; Bayer Code SEPTTR (standard laboratory isolate, SI SEPTTR); experiment: Type A (high volume) assay, leaf blotch of wheat, standard laboratory SEPTTR isolate (SI SEPTTR); assay type: in vivo, Mycosphaerella graminicola on wheat plants (variety Yuma); settings: Zymoseptoria tritici, standard laboratory isolate, high volume, 50 ppm, wheat (Yuma)
Method: (§1) Example A: Evaluation of Fungicidal Activity: Leaf Blotch of Wheat (Mycosphaerella graminicola; Anamorph: Septoria tritici; Bayer Code SEPTTR)
(§2) For Type A assays, technical grades of the experimental fungicides in Table 4 below were dissolved in acetone, and then mixed with nine volumes of water containing 110 ppm Triton X-100. The fungicide solutions were applied onto wheat seedlings using an automated booth sprayer. For Type B assays, emulsifiable concentrate (EC) formulations of technical grades of the experimental fungicides in Table 4 below were prepared at 10% (w/v), and then mixed with 150 volumes of 0.1% Trycol 5941. These solutions were applied onto wheat seedlings using an automated track sprayer at 200 L/ha. All sprayed plants were allowed to air dry prior to further handling.
(§3) Wheat plants (variety Yuma) were grown from seed in a greenhouse in 50% mineral soil/50% soil-less Metro mix until the first leaf was fully emerged, with 7-10 seedlings per pot. Prior to or after application of experimental fungicides, plants were inoculated either with spores of a standard laboratory SEPTTR isolate (SI SEPTTR) or with spores from a SEPTTR field isolate collected from Wellsbourne, England in 2012 (FI SEPTTR). After inoculation the plants were kept for 3 days at 20° C. in 100% relative humidity (one day in a dark dew chamber followed by two days in a lighted dew chamber). Plants were then transferred to a 20° C. greenhouse for disease development. When disease symptoms were fully expressed on untreated plants, infection levels on treated plants were assessed on a scale of 0 to 100 percent disease severity. Percent disease control was calculated using the ratio of disease severity on treated plants relative to untreated plants.

[2] = Type B (low volume, EC formulation, track sprayer 200 L/ha) assay, leaf blotch of wheat, SEPTTR field isolate (FI SEPTTR); assay type: in vivo, Mycosphaerella graminicola on wheat plants (variety Yuma); settings: Zymoseptoria tritici, 72 h, SEPTTR field isolate, low volume Type B assay, 100 g/ha, wheat leaf blotch
Method: as §1, §2, §3

[3] = 24 h, 1 Day Protectant, read-out: Disease Control, SI SEPTTR Type A Assay (50 ppm) 1 DP
[4] = 72 h, 3 Day Curative, read-out: Disease Control, SI SEPTTR Type A Assay (50 ppm) 3 DC
[5] = 3 Day Curative, read-out: Disease Control, FI SEPTTR Type B Assay (100 g/ha) 3 DC
[6] = 3 Day Protectant, read-out: Disease Control, FI SEPTTR Type B Assay (100 g/ha) 3 DP

N#Cc1ccc(Oc2ccc(C(O)(Cn3cnnn3)C(F)(F)c3ccc(F)cc3F)nc2)cc1 (centres unmarked) [Compound 1, 4-((6-(1-(2,4-difluorophenyl)-1,1-difluoro-2-hydroxy-3-(1H-tetrazol-1-yl)propan-2-yl)pyridin-3-yl)oxy)benzonitrile]
pest or weed control at 50 ppm [1, 3]: < 40% | pest or weed control at 50 ppm [1, 4]: 40 to 59%

OC(CCc1ccc(F)cc1F)(Cn1cnnn1)c1ccc(Oc2ccc(Cl)cn2)cn1 (centres unmarked) [Compound 2, 2-(5-((5-chloropyridin-2-yl)oxy)pyridin-2-yl)-4-(2,4-difluorophenyl)-1-(1H-tetrazol-1-yl)butan-2-ol]
pest or weed control at 50 ppm [1, 3]: 80 to 100% | pest or weed control at 50 ppm [1, 4]: < 40%

OC(CCc1ccc(Cl)cc1F)(Cn1cnnn1)c1ccc(Oc2ccc(Cl)cn2)cn1 (centres unmarked) [Compound 4]
pest or weed control at 50 ppm [1, 3]: 60 to 79% | pest or weed control at 50 ppm [1, 4]: < 40%

OC(CCc1ccc(F)cc1F)(Cn1cnnn1)c1ccc(Oc2ccc(C(F)(F)F)cn2)cn1 (centres unmarked) [Compound 5]
pest or weed control at 50 ppm [1, 3]: < 40% | pest or weed control at 50 ppm [1, 4]: 40 to 59%

CC(C)C(O)(c1cncnc1)c1ccc(Oc2ccc(Cl)cc2)cn1 (centres unmarked) [Compound 6]
pest or weed control at 50 ppm [1, 3]: 80 to 100% | pest or weed control at 50 ppm [1, 4]: 80 to 100%

OC(c1cncnc1)(c1ccc(Oc2ccc(Cl)cc2)cn1)C1CC1 (centres unmarked) [Compound 7]
pest or weed control at 50 ppm [1, 3]: 80 to 100% | pest or weed control at 50 ppm [1, 4]: 80 to 100%

OC(c1cncnc1)(c1ccc(Oc2ccc(OC(F)(F)F)cc2)cn1)C1CC1 (centres unmarked) [Compound 8]
pest or weed control at 50 ppm [1, 3]: 80 to 100% | pest or weed control at 50 ppm [1, 4]: 80 to 100%

CC(C)C(O)(c1cncnc1)c1ccc(Oc2ccc(Cl)nc2)cn1 (centres unmarked) [Compound 10]
pest or weed control at 50 ppm [1, 3]: 80 to 100% | pest or weed control at 50 ppm [1, 4]: 80 to 100%

OC(c1cncnc1)(c1ccc(Oc2ccc(Cl)nc2)cn1)C1CC1 (centres unmarked) [Compound 11]
pest or weed control at 50 ppm [1, 3]: 40 to 59% | pest or weed control at 50 ppm [1, 4]: 40 to 59%

OC(CCc1ccc(Cl)cc1F)(Cn1cnnn1)c1ccc(Oc2ccc(C(F)(F)F)cn2)cn1 (centres unmarked) [Compound 12]
pest or weed control at 50 ppm [1, 3]: 80 to 100% | pest or weed control at 50 ppm [1, 4]: < 40%

OC(CCc1ccc(Cl)cc1)(Cn1cnnn1)c1ccc(Oc2ccc(C(F)(F)F)cn2)cn1 (centres unmarked) [Compound 15]
pest or weed control at 50 ppm [1, 3]: 60 to 79% | pest or weed control at 50 ppm [1, 4]: 40 to 59%

CC(C)C(O)(c1cncnc1)c1ccc(Oc2ccc(C#N)cc2)cn1 (centres unmarked) [Compound 16]
pest or weed control at 50 ppm [1, 3]: 80 to 100% | pest or weed control at 50 ppm [1, 4]: 80 to 100%

N#Cc1ccc(Oc2ccc(C(O)(c3cncnc3)C3CC3)nc2)cc1 (centres unmarked) [Compound 18]
pest or weed control at 50 ppm [1, 3]: < 40% | pest or weed control at 50 ppm [1, 4]: < 40%

N#Cc1ccc(Oc2ccc(C(O)(Cn3cnnn3)C3CC3)nc2)cc1 (centres unmarked) [Compound 19, 4-((6-(1-cyclopropyl-1-hydroxy-2-(1H-tetrazol-1-yl)ethyl)pyridin-3-yl)oxy)benzonitrile]
pest or weed control at 50 ppm [1, 3]: < 40% | pest or weed control at 50 ppm [1, 4]: 40 to 59%

C=CCCC(O)(c1cncnc1)c1ccc(Oc2ccc(Cl)cc2)cn1 (centres unmarked) [Compound 21, 1-(5-(4-chlorophenoxy)pyridine-2-yl)-1-(pyrimidin-5-yl)pent-4-en-1-ol]
pest or weed control at 50 ppm [1, 3]: 80 to 100% | pest or weed control at 50 ppm [1, 4]: 80 to 100%

C=CCCC(O)(c1cncnc1)c1ccc(Oc2ccc(OC(F)(F)F)cc2)cn1 (centres unmarked) [Compound 22]
pest or weed control at 50 ppm [1, 3]: 80 to 100% | pest or weed control at 50 ppm [1, 4]: 80 to 100%

N#Cc1ccc(Oc2ccc(C(O)(CC3CC3)Cn3cnnn3)nc2)cc1 (centres unmarked) [Compound 23]
pest or weed control at 50 ppm [1, 3]: < 40% | pest or weed control at 50 ppm [1, 4]: 60 to 79%

CC(C)C(O)(Cn1cnnn1)c1ccc(Oc2ccc(C#N)cc2)cn1 (centres unmarked) [Compound 24]
pest or weed control at 50 ppm [1, 3]: < 40% | pest or weed control at 50 ppm [1, 4]: < 40%

CC(C)(C)C(O)(Cn1cnnn1)c1ccc(-c2ccc(OC(F)(F)F)cc2)cn1 (centres unmarked) [Compound 26, 3,3-dimethyl-1-(1H-tetrazol-1-yl)-2-[5-[4-(trifluoro-methoxy)phenyl]pyridine-2-yl]butan-2-ol]
pest or weed control at 50 ppm [1, 3]: < 40% | pest or weed control at 50 ppm [1, 4]: 40 to 59%

OC(Cc1ccc(Cl)cc1F)(Cn1cnnn1)c1ccc(-c2ccc(OC(F)(F)F)cc2)cn1 (centres unmarked) [Compound 28, 1-(4-chloro-2-fluorophenyl)-3-(1H-tetrazol-1-yl)-2-(5-(4-(trifluoromethoxy)phenyl)pyridin-2-yl)propan-2-ol]
pest or weed control at 50 ppm [1, 3]: 60 to 79% | pest or weed control at 50 ppm [1, 4]: 40 to 59%

CC(C)(C)C#CC(O)(c1cncnc1)c1ccc(Oc2ccc(Cl)cc2)cn1 (centres unmarked) [Compound 29, 1-(5-(4-chlorophenoxy)pyridin-2-yl)-4,4-dimethyl-1-(pyrimidin-5-yl)pent-2-yn-1-ol]
pest or weed control at 50 ppm [1, 3]: 80 to 100% | pest or weed control at 50 ppm [1, 4]: 80 to 100%

CC(C)(C)C#CC(O)(c1cncnc1)c1ccc(Oc2ccc(OC(F)(F)F)cc2)cn1 (centres unmarked) [Compound 31]
pest or weed control at 50 ppm [1, 3]: < 40% | pest or weed control at 50 ppm [1, 4]: 60 to 79%

CCC(O)(c1cncnc1)c1ccc(Oc2ccc(OC(F)(F)F)cc2)cn1 (centres unmarked) [Compound 32]
pest or weed control at 50 ppm [1, 3]: 80 to 100% | pest or weed control at 50 ppm [1, 4]: 80 to 100%

CC(C)(C)C#CC(O)(c1cncnc1)c1ccc(Oc2ccc(C(F)(F)F)cc2)cn1 (centres unmarked) [Compound 33]
pest or weed control at 50 ppm [1, 3]: 80 to 100% | pest or weed control at 50 ppm [1, 4]: 60 to 79%

CCC(O)(c1cncnc1)c1ccc(Oc2ccc(C(F)(F)F)cc2)cn1 (centres unmarked) [Compound 34]
pest or weed control at 50 ppm [1, 3]: 80 to 100% | pest or weed control at 50 ppm [1, 4]: 60 to 79%

CC(C)(C)C#CC(O)(c1cncnc1)c1ccc(Oc2ccc(Cl)nc2)cn1 (centres unmarked) [Compound 35]
pest or weed control at 50 ppm [1, 3]: < 40% | pest or weed control at 50 ppm [1, 4]: 60 to 79%

CCC(O)(c1cncnc1)c1ccc(Oc2ccc(Cl)nc2)cn1 (centres unmarked) [Compound 36]
pest or weed control at 50 ppm [1, 3]: < 40% | pest or weed control at 50 ppm [1, 4]: 60 to 79%

OC(C#CC1CC1)(c1cncnc1)c1ccc(Oc2ccc(Cl)cc2)cn1 (centres unmarked) [Compound 40]
pest or weed control at 50 ppm [1, 3]: 80 to 100% | pest or weed control at 50 ppm [1, 4]: 60 to 79%

OC(Cc1ccc(Cl)cc1F)(Cn1cnnn1)c1ccc(Oc2ccc(Cl)cc2)cn1 (centres unmarked) [Compound 42, 1-(4-chloro-2-fluorophenyl)-2-(5-(4-chlorophenoxy)-pyridin-2-yl)-3-(1H-tetrazol-1-yl)propan-2-ol]
pest or weed control at 50 ppm [1, 3]: 80 to 100% | pest or weed control at 50 ppm [1, 4]: 80 to 100%

CC(C)(C)C(O)(Cn1cnnn1)c1ccc(Oc2ccc(Cl)cc2)cn1 (centres unmarked) [Compound 43]
pest or weed control at 50 ppm [1, 3]: 60 to 79% | pest or weed control at 50 ppm [1, 4]: 80 to 100%

CC(C)(C)C(O)(c1cncnc1)c1ccc(Oc2ccc(Cl)cc2)cn1 (centres unmarked) [Compound 44]
pest or weed control at 50 ppm [1, 3]: < 40% | pest or weed control at 50 ppm [1, 4]: < 40%

OC(Cc1cncnc1)(c1ccc(-c2ccc(Cl)cc2)cn1)C(F)(F)F (centres unmarked) [Compound 46, 2-(5-(4-chlorophenyl)pyridin-2-yl)-1,1,1-trifluoro-3-(pyrimidin-5-yl)propan-2-ol]
pest or weed control at 50 ppm [1, 3]: 80 to 100% | pest or weed control at 50 ppm [1, 4]: 80 to 100%

OC(C#CC1CC1)(c1cncnc1)c1ccc(Oc2ccc(C(F)(F)F)cc2)cn1 (centres unmarked) [Compound 47]
pest or weed control at 50 ppm [1, 3]: 40 to 59% | pest or weed control at 50 ppm [1, 4]: 80 to 100%

CCC(C#N)(CC)c1ccc(-c2ccc(C(O)(c3cncnc3)C(C)(C)C)nc2)c(C)c1 (centres unmarked) [Compound 264]
pest or weed control at 100 g/ha [2, 5]: 80 to 100% | pest or weed control at 100 g/ha [2, 6]: 80 to 100%

CC(C)(C#N)c1ccc(-c2ccc(C(O)(c3cncnc3)C(C)(C)C)nc2)c(Cl)c1 (centres unmarked) [Compound 265]
pest or weed control at 100 g/ha [2, 5]: 80 to 100% | pest or weed control at 100 g/ha [2, 6]: 80 to 100%

CC#CC(O)(c1cncnc1)c1ccc(-c2ccc(OC(F)(F)F)cc2)cn1 (centres unmarked) [Compound 266]
pest or weed control at 100 g/ha [2, 5]: < 40% | pest or weed control at 100 g/ha [2, 6]: 60 to 79%

COC(c1cncnc1)(c1ccc(-c2ccc(C(C)(C)C#N)cc2C)cn1)C(C)(C)C (centres unmarked) [Compound 267]
pest or weed control at 100 g/ha [2, 5]: 60 to 79% | pest or weed control at 100 g/ha [2, 6]: 80 to 100%

CCC(C#N)(CC)c1ccc(-c2ccc(C(O)(c3cncnc3)C(C)(C)C)nc2)c(F)c1 (centres unmarked) [Compound 268]
pest or weed control at 100 g/ha [2, 5]: 80 to 100% | pest or weed control at 100 g/ha [2, 6]: 80 to 100%

CCC(OC)(c1cncnc1)c1ccc(-c2ccc(OC(F)(F)F)cc2F)cn1 (centres unmarked) [Compound 269]
pest or weed control at 100 g/ha [2, 5]: 40 to 59% | pest or weed control at 100 g/ha [2, 6]: 80 to 100%

C#CCOC(C#CC)(c1cncnc1)c1ccc(-c2ccc(OC(F)(F)F)cc2)cn1 (centres unmarked) [Compound 270]
pest or weed control at 100 g/ha [2, 5]: < 40% | pest or weed control at 100 g/ha [2, 6]: 40 to 59%

CC(C)(C)C(O)(c1ccc(-c2ccc(OC(F)(F)F)cc2F)cn1)c1cnccn1 (centres unmarked) [Compound 271]
pest or weed control at 100 g/ha [2, 5]: < 40% | pest or weed control at 100 g/ha [2, 6]: 80 to 100%

CCOC(c1cncnc1)(c1ccc(-c2ccc(OC(F)(F)F)cc2)cn1)C(C)C (centres unmarked) [Compound 272]
pest or weed control at 100 g/ha [2, 5]: < 40% | pest or weed control at 100 g/ha [2, 6]: 60 to 79%

COc1ncncc1C(O)(c1ccc(-c2ccc(OC(F)F)cc2)cn1)C(C)(C)C (centres unmarked) [Compound 273]
pest or weed control at 100 g/ha [2, 5]: < 40% | pest or weed control at 100 g/ha [2, 6]: 80 to 100%
